From ChEMBL document CHEMBL1201862, “PubChem BioAssay data set” (2004)
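In this assay, cells in 96-well plates receive the compound at five concentrations for 48 hours. Endpoints are linearly interpolated between the surrounding concentrations. GI50: concentration for 50% inhibition of growth.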 The source made the active and inactive calls. No stated cut-off is given here; in the data, active = GI50 up to about 1.1 µM and inactive = higher.

What was measured:
Assay in all cases: DTP human tumour cell line panel, 48 h
786-0 = test system: 786-0
A549 = test system: A549
ACHN = test system: ACHN
BT-549 = test system: BT-549
COLO 205 = test system: COLO 205
HCT-116 = test system: HCT-116
HOP-92 = test system: HOP-92
NCI-H460 = test system: NCI-H460
OVCAR-8 = test system: OVCAR-8
SF-295 = test system: SF-295
SK-MEL-28 = test system: SK-MEL-28
SK-MEL-2 = test system: SK-MEL-2
SNB-19 = test system: SNB-19
T47D = test system: T47D
TK-10 = test system: TK-10
UACC-62 = test system: UACC-62
UO-31 = test system: UO-31
K562 = test system: K562
NCI-H226 = test system: NCI-H226

Measured: GI50

CCOC(=O)CCC(NC(=O)c1ccc(Oc2nc3ccccc3nc2C(=O)OCC)cc1)C(=O)OCC (centres undefined)
inactive: 786-0 37.2 µM | A549 > 100 µM | ACHN > 100 µM | BT-549 > 100 µM | COLO 205 > 100 µM | HCT-116 72.3 µM | HOP-92 > 100 µM | NCI-H460 > 100 µM | OVCAR-8 41.2 µM | SF-295 > 100 µM | SK-MEL-28 > 100 µM | SK-MEL-2 > 100 µM | SNB-19 85.5 µM | T47D > 100 µM | TK-10 > 100 µM | UACC-62 > 100 µM | UO-31 > 100 µM

C[C@@]1(O)C2C3CC4C5C3C1[C@](O)(C42)[C@H]5Br (some centres undefined)
inactive: 786-0 > 100 µM | A549 > 100 µM | ACHN > 100 µM | BT-549 > 100 µM | COLO 205 > 100 µM | HCT-116 > 100 µM | HOP-92 > 100 µM | K562 > 100 µM | NCI-H460 > 100 µM | OVCAR-8 > 100 µM | SF-295 > 100 µM | SK-MEL-28 > 100 µM | SK-MEL-2 > 100 µM | SNB-19 > 100 µM | T47D > 100 µM | TK-10 > 100 µM | UACC-62 > 100 µM | UO-31 > 100 µM

COc1cc(S(=O)(=O)Nc2ccc(-c3csc(N)n3)cc2)ccc1Cl
inactive: 786-0 16.4 µM | A549 18.4 µM | ACHN 17.4 µM | BT-549 22.3 µM | COLO 205 17 µM | HCT-116 16.2 µM | HOP-92 22.6 µM | K562 18.5 µM | NCI-H226 26.4 µM | OVCAR-8 22.3 µM | SK-MEL-28 21.3 µM | SK-MEL-2 18.8 µM | SNB-19 19.5 µM | T47D 7.87 µM | UACC-62 15.2 µM | UO-31 19.8 µM

COc1ccc(C(OCC2OC(n3cc(C)c(=O)[nH]c3=O)CC2n2cc(Cn3cc(Cl)c(=O)[nH]c3=O)nn2)(c2ccccc2)c2ccccc2)cc1 (centres undefined)
inactive: 786-0 > 100 µM | A549 > 100 µM | ACHN > 100 µM | BT-549 82.6 µM | COLO 205 > 100 µM | HCT-116 33.9 µM | HOP-92 28.8 µM | NCI-H226 > 100 µM | OVCAR-8 > 100 µM | SF-295 > 100 µM | SK-MEL-28 87.5 µM | SK-MEL-2 > 100 µM | SNB-19 > 100 µM | T47D > 100 µM | TK-10 > 100 µM | UACC-62 38 µM | UO-31 > 100 µM

CN(C)/C=N/[C@@H](C(=O)O)c1ccccc1
inactive: 786-0 > 100 µM | A549 > 100 µM | ACHN > 100 µM | BT-549 > 100 µM | COLO 205 > 100 µM | HCT-116 > 100 µM | HOP-92 > 100 µM | K562 > 100 µM | NCI-H226 > 100 µM | NCI-H460 > 100 µM | OVCAR-8 > 100 µM | SF-295 > 100 µM | SK-MEL-28 > 100 µM | SNB-19 > 100 µM | T47D > 100 µM | TK-10 > 100 µM | UACC-62 > 100 µM | UO-31 > 100 µM

CC(C)OC(=O)NNc1c(Cl)cc(Cl)cc1Cl
inactive: 786-0 > 100 µM | A549 53 µM | ACHN > 100 µM | BT-549 44.4 µM | COLO 205 49.1 µM | HCT-116 80.9 µM | HOP-92 23.2 µM | K562 55.6 µM | NCI-H460 63.7 µM | OVCAR-8 > 100 µM | SF-295 77.6 µM | SK-MEL-28 > 100 µM | SK-MEL-2 55.6 µM | SNB-19 > 100 µM | T47D 33.7 µM | TK-10 37.7 µM | UACC-62 56.9 µM | UO-31 55.8 µM
